Test results: PubChem BioAssay AID1996
Converted amounts (≈) assume the structure as drawn.

Conditions: buffer; pH 7.4; 200.0 µM

SMILES	solubility kinetic [µg/mL]
O=[N+]([O-])c1cccnc1N1CCN(c2ccc(F)cc2)CC1	12.1 (≈ 40 µM)
O=C(CN1C(=O)c2ccccc2C1=O)NCc1ccc(F)cc1	6.5 (≈ 20.8 µM)
Cc1ccc(C(=O)O)cc1NS(=O)(=O)c1ccc2ccccc2c1	> 51.2
O=C(CSc1nccc(=O)[nH]1)Nc1ccc2c(c1)OCCO2	40.8 (≈ 128 µM)
O=C(Nc1ccc(S(=O)(=O)Nc2nccs2)cc1)C(F)(F)F	> 52.7
CC1=C(C(=O)OC2CCCCC2)C(c2ccc(F)cc2)NC(=O)N1 (stereo not given)	31.2 (≈ 93.9 µM)
Cc1cc(C)nc(NC(=O)c2cccs2)n1	> 35
Cc1nn(C)c(C)c1NS(=O)(=O)c1c(C)n[nH]c1C	> 42.5
COc1ccc(Cl)cc1NC(=O)NCc1ccccn1	41.6 (≈ 143 µM)
CNS(=O)(=O)c1cccc(C(=O)OCC(=O)Nc2ccc3ccccc3c2)c1	2.8 (≈ 7.03 µM)
CC1(c2ccccc2)NC(=O)N(CC(=O)N(c2ccccc2)C2CCS(=O)(=O)C2)C1=O (stereo not given)	60.3 (≈ 137 µM)
Cc1ccc(OCC(=O)NCCNC(=O)c2cnccn2)cc1	40.9 (≈ 130 µM)
CC(=O)Nc1ccc(OCC(=O)NCc2ccc(C)cc2)cc1	> 46.9
Cc1ccc2cc(/C=C/C(=O)c3ccco3)c(Cl)nc2c1	3.2 (≈ 10.7 µM)
COc1cc(/C=C(\NC(C)=O)C(=O)N2CCCCC2)ccc1OC(C)=O	47.7 (≈ 132 µM)
O=[N+]([O-])c1ccc(Cl)c(NC2=NCCCCC2)c1	> 40.2
O=c1c2ccccc2nc(/C=C/c2ccc(Cl)cc2)n1CCO	1.3 (≈ 3.98 µM)
Cc1cccc(NC(=O)COC(=O)COc2ccc3c(c2)CCC3)c1	5.7 (≈ 16.8 µM)
COc1ccc(C2=NOC(C(=O)Nc3ccc4c(c3)OCO4)C2)cc1 (stereo not given)	1.6 (≈ 4.7 µM)
Cc1ccc(NC(=O)CSc2nc(C)c(Cc3ccccc3)c(=O)[nH]2)cc1	1.4 (≈ 3.69 µM)
O=C(NCCNC(=O)c1cc(Cl)ccc1Cl)c1ccco1	46.6 (≈ 142 µM)
COc1ccc(NC(=O)c2cc(=O)[nH]c3ccccc23)cc1	2.1 (≈ 7.14 µM)
CC1=C(C)C(C)=C(C#N)C(=C(C#N)C#N)N1	> 31.5
O=C(Cc1ccccc1[N+](=O)[O-])NCc1ccco1	> 39

SMILES	solubility kinetic [µg/mL]
CC1CCCN(CCC(=O)c2ccc(Br)cc2)C1.Cl (stereo not given)	33.8
COC(=O)c1sccc1NC(=O)Nc1ccc(F)cc1	28.4 (≈ 96.5 µM)
Cn1cc(C(=O)Nc2ccccn2)c(=O)c2ccccc21	1.3 (≈ 4.65 µM)
COCCNC(=O)c1cc(Sc2nnc(C)s2)nc2ccccc12	> 54.1
O=C(Cc1cccc2ccccc12)Nc1ccccc1Br	< 0.7
O=C(C1=C(O)C(=O)N(c2ncccn2)C1c1ccc(F)cc1)c1ccco1 (stereo not given)	53.1 (≈ 145 µM)
Cc1cccc(NC(=O)CCN2CCCCC2)c1.Cl	> 42.4
Cl.Nc1cc(Cl)ccc1N1CCCC1	10.6
CSc1ccc(Cl)c(C(=O)Nc2ccc(C)cn2)c1	4.8 (≈ 16.4 µM)
O=C(CCCl)Nc1nc2c(s1)CCc1ccccc1-2	7.2 (≈ 24.6 µM)
CCCN1C2CCCC1CC(NC(=O)c1ccccc1OC)C2 (stereo not given)	> 47.5
Cc1ccc(CCC(=O)Nc2ccc(N(C)C)cc2)o1	17.5 (≈ 64.3 µM)
COC(=O)C1CCN(c2cnccn2)CC1	> 33.2
Cc1cccc(Cn2cnc3c(sc4nc(C)cc(C)c43)c2=O)c1	< 0.2
O=C(Cc1cccc2ccccc12)Nc1cc(C(=O)O)cc(C(=O)O)c1	> 52.4
CN(C)C(=S)c1ccccc1	21.4 (≈ 129 µM)
COc1ccc(C(=O)C23CN4CN(CN(C4)C2)C3)cc1	> 41
N/C(=N\OC(=O)c1ccccc1F)c1cccc([N+](=O)[O-])c1	2.1 (≈ 6.93 µM)
COc1ccc(NC(=O)CCC(=O)c2cc(C)sc2C)cc1	6.3 (≈ 19.8 µM)
CCN(CC)c1ccc(N=Cc2c(O)n(CCc3ccc(OC)c(OC)c3)c(=O)[nH]c2=O)cc1	9.5 (≈ 20.4 µM)
CC(=O)Nc1cccc(NC(=O)CCCC2CCCCC2)c1	3 (≈ 9.92 µM)
O=c1[nH]c2ccc(S(=O)(=O)Nc3ccccc3O)cc2[nH]1	> 45.8
O=Cc1c[nH]c2ccc(OCc3ccccc3)cc12	< 0.5
O=[N+]([O-])c1cccnc1SCc1ccccc1	0.3 (≈ 1.22 µM)

SMILES	solubility kinetic [µg/mL]
COc1ccc(-c2csc3ncnc(NCCCO)c23)cc1	42.2 (≈ 134 µM)
O=C1NC(=Nc2ccc(F)cc2)SC1Cc1ccc(F)cc1 (stereo not given)	1 (≈ 3.14 µM)
COC(=O)c1ccc(NC(=O)CSc2nc3ncccc3[nH]2)cc1	3.5 (≈ 10.2 µM)
C=CCc1ccccc1OCC(O)CNC1CCCC1.Cl (stereo not given)	> 46.8
CC1CC(C)CN(CCOc2cccc3ccccc23)C1 (stereo not given)	34.1 (≈ 120 µM)
CCCOc1ccc(-c2nc(N3CCN(C)CC3)c3ccccc3n2)cc1	14.5 (≈ 40 µM)
O=C(CSCc1ccco1)N1CCc2ccccc21	36.9 (≈ 135 µM)
N#Cc1ccc(Cn2c(=O)oc3ccccc32)cc1	6 (≈ 24 µM)
CC(C)C(=O)Nc1c(-c2cccc(Cl)c2)c(=O)c2ccccc2n1C	10.1 (≈ 28.5 µM)
CC1CCCC(NC(=O)COC(=O)c2cccs2)C1C (stereo not given)	43.1 (≈ 146 µM)
O=C1NC(=S)NC(=O)C1C1CCCCC1	30.1 (≈ 133 µM)
COc1ccccc1C(=O)CN1C(=O)NC2(CCCCCC2)C1=O	12.9 (≈ 39 µM)
ClCc1cc2ccccc2nc1Cl	6.5 (≈ 30.6 µM)
CCN(C(=O)c1ccco1)c1nnc(-c2cccnc2)s1	> 45.1
Cc1nc(Nc2ccc(Cl)cc2)c(C#N)c(=O)[nH]1	9.6 (≈ 36.8 µM)
CCn1c(C)nc2cc(C(=O)OC)ccc21	> 32.7
Cl.N=c1ccn(Cc2cccc(F)c2)cc1	30.8
Cc1cccc2cc(CN(Cc3ccco3)C(=O)c3ccco3)c(=O)[nH]c12	0.8 (≈ 2.21 µM)
COc1ccc(-c2csc(C)n2)cc1Br	14.8 (≈ 52.1 µM)
CCc1nnc(NC(=O)C2(C)COC(c3ccccc3)OC2)s1 (stereo not given)	> 50
CC(C)(CCO)Nc1ncnc2onc(-c3ccc(F)cc3)c12	> 47.5
Cc1ccc(C2CCN(C(=S)NC3CCCCC3)C2)cc1 (stereo not given)	1.3 (≈ 4.3 µM)
CCCCC(=O)Nc1ccccc1N1CCN(c2ccc(F)cc2)CC1	4.3 (≈ 12.1 µM)
COc1ccc(OC)c(C(C)NC(=S)NC2CCCCC2)c1 (stereo not given)	28 (≈ 86.8 µM)

SMILES	solubility kinetic [µg/mL]
Cc1ccc(C(=O)NC(C)C2CCCO2)o1 (stereo not given)	> 33.5
CCOc1ccc(C(=O)CCC(=O)N2CCN(c3ccccc3O)CC2)cc1	2.2 (≈ 5.75 µM)
Cc1c(Cl)cccc1NS(=O)(=O)c1cccc2nsnc12	> 51
O=C(COc1ccccc1F)Nc1nc(-c2ccccn2)cs1	8.8 (≈ 26.7 µM)
S=C(Nc1ccccc1Oc1ccccc1)NC1CCCC1	5 (≈ 16 µM)
CC(=O)c1c(C)[nH]c(C(=O)OCCOc2ccccc2)c1C	1.3 (≈ 4.31 µM)
CCCCn1c(NCc2ccncc2)nc2ccccc21	39.4 (≈ 141 µM)
Cc1ccc(CN2CCN(c3ccccc3)CC2)o1.O=C(O)C(=O)O	49.1
CC(C)S(=O)(=O)c1csc(NC(=O)Nc2ccc(Cl)cc2)c1Cl	< 0.4
S=C(CN1CCCC1=S)N1CCOCC1	> 36.7
CC1CC(C)CN(CC(O)COC2CC(C)CC(C)(C)C2)C1.Cl (stereo not given)	47.9
Cc1c(Cl)cccc1NC(=O)C1COc2ccccc2O1 (stereo not given)	30.6 (≈ 101 µM)
Cc1cc(NC(=O)COc2ccc3ccccc3c2)no1	0.6 (≈ 2.13 µM)
COC(=O)NC(=C(Cl)Cl)P(=O)(c1ccccc1)c1ccccc1	> 55.5
Cc1cc(NC(=O)Cn2cnc3sccc3c2=O)no1	7.8 (≈ 26.9 µM)
O=C(Nc1cscc1S(=O)(=O)c1ccccc1)c1ccccc1Cl	10.3 (≈ 27.3 µM)
COCc1c(C(=O)OCC(=O)NCc2ccco2)oc2ccccc12	48 (≈ 140 µM)
CC(C)(C)CNc1cc(N2CCOCC2)ccc1[N+](=O)[O-]	1.8 (≈ 6.14 µM)
CC1=C(C)CC(C(=O)NCc2c(F)cccc2Cl)C(C(=O)O)C1 (stereo not given)	> 51
Cc1ccc(Cl)cc1NC(=O)c1ccccn1	6.3 (≈ 25.5 µM)
COc1ccccc1N1CCN(CC(O)c2c(C)[nH]c3ccccc23)CC1 (stereo not given)	> 54.8
NC(=O)C1CCN(C(=O)CNC(=O)c2ccc(F)cc2)CC1	> 46.1
Clc1ccc(-c2csc(N3CCCCCC3)n2)cc1	< 0.3
O=S(=O)(c1ccccc1)N(CC1CO1)c1cc(Cl)ccc1Cl (stereo not given)	36.4 (≈ 102 µM)

SMILES	solubility kinetic [µg/mL]
O=C(NCC(=O)c1ccccc1)OCc1ccc([N+](=O)[O-])cc1	2.5 (≈ 7.95 µM)
O=C(O)/C=C/c1cn(-c2ccccc2)nc1-c1ccccc1	> 43.5
Cc1csc(NC(=O)C2=COCCO2)n1	> 33.9
COc1ccc(-n2ncc3c(=O)n(CC(C)=O)cnc32)cc1	> 44.7
O=S(=O)(c1ccc(Cl)nc1)N1CCCCC1	> 39.1
COc1cc(OC)cc(C(=O)NC2CCCCCCC2)c1	8.6 (≈ 29.5 µM)
O=C(CCCc1ccccc1)Nc1ccc(Br)cc1F	< 0.7
Cc1ccc(-c2csc(NC(=O)CN3C(=O)CCC3=O)n2)cc1	0.5 (≈ 1.52 µM)
O=C(O)CSc1ccc(S(=O)(=O)N2CCCC2)cn1	> 45.4
CCOC(=O)C1CCCN(C(=O)c2ccc(Cl)cc2)C1 (stereo not given)	> 44.4
Cc1cc(C)c(S(=O)(=O)N2CCCc3ccccc32)c(C)c1	1.8 (≈ 5.71 µM)
Cc1ccc(NC(=O)c2cc(-c3ccc(F)cc3)on2)cc1C	0.4 (≈ 1.29 µM)
Cc1cc2c(SCC(=O)NC3CCCCC3)ncnc2s1	4.4 (≈ 13.7 µM)
CC(C)NC(=O)Cn1cc(C(=O)c2ccccc2)c2ccccc21	1.7 (≈ 5.31 µM)
Nc1cc(=O)[nH]c(SCc2cccc3ccccc23)n1	4 (≈ 14.1 µM)
COC(=O)c1ccc(NC(=O)c2cc[n+](Cc3ccccc3)cc2)cc1.[Cl-]	50.7
CN(Cc1cccc(F)c1)CC(O)COCc1ccccc1Cl (stereo not given)	44.9 (≈ 133 µM)
CC1CN(C(=O)c2ccc(-c3ccccc3Cl)o2)CC(C)O1 (stereo not given)	34.8 (≈ 109 µM)
Cc1ccc(N2C(=O)CC(Sc3nc(C)cc(C)n3)C2=O)cc1 (stereo not given)	34.7 (≈ 106 µM)
Cc1ccccc1CN(C)C(=O)CNC(=O)c1ccc2ccccc2c1	31.1 (≈ 89.8 µM)
COc1ccc(CNc2cc(NCCCO)c([N+](=O)[O-])c3nonc23)cc1	45.7 (≈ 122 µM)
Cc1c(NC(=O)c2ccc(NS(=O)(=O)c3ccc(F)c(F)c3)cc2)c(=O)n(-c2ccccc2)n1C	> 74.8
COc1ccccc1NS(=O)(=O)c1ccc(C)c(C(=O)Nc2cc(C)on2)c1	22.4 (≈ 55.8 µM)
COc1cc2c(cc1OC)CN(CC(=O)NC(=O)NC(C)(C)C)CC2	45.9 (≈ 131 µM)
